One series can be described thus: in vitro. As to conditions: 37 C, followed for 720 min; for half-life at 10 µg/ml: Sprague-Dawley, rat, heparin-stabilised rat plasma, T½ in rat plasma; for T½ in rat plasma / kobs (degradation rate): heparin stabilised rat plasma. How it is done: The degradation of the two test compounds and in heparin stabilised rat (Sprague-Dawley) plasma was followed by the combination of solid phase extraction and LC-MS. The degradation was followed for 720 minutes in plasma.
Blank rat plasma in sodium heparin (5000 units/mL) were obtained from Harlan Sera Lab Ltd. (Loughborough, UK).
The LC-MS analysis was performed on an HP 1100 instrument consisting of an on-line degasser, a quaternary gradient pump, an auto sampler, a column oven, Hewlett Packard (Wilmington. Del., U.S.A.) in combination with a Quattro Ultima mass spectrometer from Micromass (Altrincham, UK). Both the LC and MS were controlled by MassLynx 3.3 software. The LC separations prior to MS detection were performed on a Vydac 218MS52 (2.1×250 mm) column (Hesperia, Calif., U.S.A.).
The initial plasma volume was 1000 μl (37° C.). From the initial plasma volume, 100 μl was transferred to a 0.75 ml HPLC vial (used as blank), mixed with 560 μl extraction solution (MeCN:0.18 M ammonium carbonate pH 9.5 (6:94 v/v), 4 C) and extracted by Solid Phase Extraction using ASPEC XL4 Robot. A volume of 100 μl stock solution was added to the remaining 900 μl plasma, mixed thoroughly and incubated at 37 C (corresponding to an initial concentration of 10 μg of the test compounds/ml). At each time point (0.2, 60, 120, 180, 240, 360, 480, 662 and 720 min., respectively) 100 μl of the drug containing plasma was collected, mixed with 560 μl ice cold extraction solution and immediately extracted by SPE as described above. The extracted plasma samples were analysed by LC-MS.
The samples were kept at 18° C. in the autosampler tray prior to injection of 10 μl. The separations were performed at 30° C. on a Vydac 218MS52 (2.1×250 mm) LC column using a linear gradient from 15 to 50% B within 14 min. at a flow rate of 250 μl/min 0.1% formic acid in water was used as mobile phase A and 0.1% formic acid in MeCN as mobile phase B. Compound 4 and Compound (iii) were detected by single ion recording (SIR) using the 6 H+(m/z=676.7) and 4 H+(m/z=822.1) ion species, respectively. The cone voltage for the analysis of compound (iii) and Compound 4 was set to 100 and 70 V respectively. […] The degradation of the two compounds were followed for 720 min and the results were plotted as the natural logarithm of the peak area vs. time.

The nature of series [1]: In vivo pharmacokinetics after i.v. administration to rabbits. To be noted: iv; for half-life: New Zealand White, rabbit, in vivo, 1000 nmol/kg, iv 1000 nmol/kg, mean. How it is done:
In order to establish whether this effect is sustained in vivo, the pharmacokinetic parameters of the two compounds are examined in rabbits.
Compound 4 (batch No. ZP 7.97-5-F, 4053 g/mol) and Compound (iii) (batch No. ZP 7.73-2-G, 3854 g/mol) were synthesised in-house using the Fmoc strategy. […] The peptides were dissolved in pyrogen free isotonic saline and both peptides were administered i.v. to rabbits and rats using a dose of 1000 nmol/kg.
Fifteen New Zealand White rabbits weighing 2.5 to 3.0 kg were used for the experiment. On the day of the experiment, the rabbits were anaesthetised with Hypnorm® i.m. followed by Dormicum® i.v., Catheters were inserted into the femoral vein and artery for i.v. administration of drugs and arterial blood sampling. The rabbits stayed unconscious throughout the experiment.
Blood samples were collected at t−1, 3, 5, 10, 15, 20, 30, 40, 60, 90, 120, 150, 180, and 240 min. The blood was collected in EDTA containing ice-chilled tubes and immediately centrifuged at 4 C for 5 min (20.000×g). Plasma (250 μl) was transferred to ice-chilled 0.75 ml PLC vials containing 250 μl extraction solution (MeCN: 0.18 M Ammonium Carbonate pH 9.5, 10:90 v/v). The plasma samples were stored at −20 C until SPE and LC/MS analysis.
The drug containing plasma samples (400 μl) are loaded onto OASIS™ HLB (Compound 4) or ISOLUTE™ (Compound (iii)) solid phase extraction columns preconditioned with 950 μl MeCN followed by 950 μl water. The columns are washed with 950 μl 2% TFA in water followed by an equal volume of 2% TFA in MeCN:water (20:78 v/v). The analytes are eluted with 500 μl 2% TFA in MeCN:water (60:38 v/v) and analysed by LC/MS.
The samples were kept at 18 C in the auto sampler tray prior to injection of 20 to 50 μl onto the LC column (Vydac 218MS52 (2.1×250 mm). The separations were performed at 30° C. using a flow rate of 250 μl/min and a gradient according to the table below. Both the test compound and the reference drug are detected by single ion recording (SIR) using the m/z=676.7 and the m/z=1095.2 and 821.8 ion species, respectively. All instrument conditions were controlled by MassLynx software ver. 3.3 software.
The plasma samples were analysed as described under materials and methods and the plasma concentration (Cpl) plotted versus time in a semi log diagram. The plasma concentration were followed for three hours in rabbits, whereas the limited blood volume of rats restricted the blood sampling in this specie to one hour. The Cpl vs. time curves from the individual rabbits were fitted to a two-compartment open model (figure not shown) using 1/y^2 weighted least squares in WinNonlin 3.1 (Pharsight Corp. (Mountain View, Calif.)).
Table 5: The pharmacokinetic constants were obtained from rabbits when the Cpl vs. time curves was fitted mathematically. The compounds were administered iv in a concentration of 1000 nmol/kg. T1/2 values are given in minutes (min) for the a and P phase.

SMILES strings stand for the structures.

By half-life is commonly meant how long it takes for the measured level to halve. Turning to `CC[C@H](C)[C@H](NC(=O)[C@H](Cc1ccccc1)NC(=O)[C@H](CCC(=O)O)NC(=O)[C@H](CCCCN)NC(=O)[C@H](C)NC(=O)[C@H](C)NC(=O)[C@H](CCC(N)=O)NC(=O)CNC(=O)[C@H](CCC(=O)O)NC(=O)[C@H](CC(C)C)NC(=O)[C@H](Cc1ccc(O)cc1)NC(=O)[C@H](CO)NC(=O)[C@H](CO)NC(=O)[C@@H](NC(=O)[C@H](CC(=O)O)NC(=O)[C@H](CO)NC(=O)[C@@H](NC(=O)[C@H](Cc1ccccc1)NC(=O)[C@@H](NC(=O)CNC(=O)[C@H](CCC(=O)O)NC(=O)CNC(=O)[C@@H](N)Cc1c[nH]cn1)[C@@H](C)O)[C@@H](C)O)C(C)C)C(=O)N[C@@H](C)C(=O)N[C@@H](Cc1c[nH]c2ccccc12)C(=O)N[C@@H](CC(C)C)C(=O)N[C@H](C(=O)N[C@@H](CCCCN)C(=O)NCC(=O)N[C@@H](CCCNC(=N)N)C(=O)N[C@@H](CCCCN)C(=O)N[C@@H](CCCCN)C(=O)N[C@@H](CCCCN)C(=O)N[C@@H](CCCCN)C(=O)N[C@@H](CCCCN)C(=O)N[C@@H](CCCCN)C(N)=O)C(C)C` [Compound 4], in “in vitro”, the half-life at 10 µg/ml was determined as 466 min, the “T½ in rat plasma” value is 466.1 min and the “kobs (degradation rate)” value is 0.0015 min⁻¹. In series [1] (T1/2, α), this compound returned a half-life of 6.8 min. The compound also registered a half-life in series [1] (T1/2, β) of 28 min. Besides, in series [1] (Table 5), the “T½ value relative to the unconjugated peptide” value is listed as “approximately three times”.

For `CC[C@H](C)[C@H](NC(=O)[C@H](Cc1ccccc1)NC(=O)[C@H](CCC(=O)O)NC(=O)[C@H](CCCCN)NC(=O)[C@H](C)NC(=O)[C@H](C)NC(=O)[C@H](CCC(N)=O)NC(=O)CNC(=O)[C@H](CCC(=O)O)NC(=O)[C@H](CC(C)C)NC(=O)[C@H](Cc1ccc(O)cc1)NC(=O)[C@H](CO)NC(=O)[C@H](CO)NC(=O)[C@@H](NC(=O)[C@H](CC(=O)O)NC(=O)[C@H](CO)NC(=O)[C@@H](NC(=O)[C@H](Cc1ccccc1)NC(=O)[C@@H](NC(=O)CNC(=O)[C@H](CCC(=O)O)NC(=O)CNC(=O)[C@@H](N)Cc1cnc[nH]1)[C@@H](C)O)[C@@H](C)O)C(C)C)C(=O)N[C@@H](C)C(=O)N[C@@H](Cc1c[nH]c2ccccc12)C(=O)N[C@@H](CC(C)C)C(=O)N[C@H](C(=O)N[C@@H](CCCCN)C(=O)NCC(=O)N[C@@H](CCCNC(=N)N)C(N)=O)C(C)C` [Compound (iii), reference compound], in “in vitro”, the half-life at 10 µg/ml came out at 238 min, the “T½ in rat plasma” value is listed as 238.4 min and the “kobs (degradation rate)” value is 0.0029 min⁻¹. In addition, in series [1] (T1/2, α), the half-life amounted to 2.3 min. In series [1] (T1/2, β), this compound had a half-life of 10.8 min.
